Counter-ions that a name gives are not always drawn.
Tests used:
Type in all cases: in vivo
Male Slc-ddy mice [1] = test: Anti-nicotinic effect (survival after intravenous nicotine bitartrate); conditions: Mus musculus, 0.5 h, oral, nicotine bitartrate 3 mg/10 ml/kg i.v. after 30 min, Litchfield-Wilcoxon, 95 % confidence limit in brackets, read-out: ED₅₀ values for the anti-nicotinic effect
Procedure: Experimental Method of Male Slc-ddy mice/30 - 35 g (6 weeks old) were used as test animals in groups of 7 - 10. The test compounds (100 mg/10 ml/kg) were orally administered to the mice, and after 30 min, nicotine bitartrate (3 mg/10 ml/kg) was administered intravenously, and the number of animals killed due to tonic convulsion was counted. The surviving animals were judged as having an anti-nicotinic effect, and with the number thereof as index the comparison concerning the anti-nicotinic effect was made with the reference compound (eperisone hydrochloride).

Male ddy mice = test: Acute toxicity test; conditions: oral
Procedure: (§1) Male ddy mice of 20-30 g were used as test animals in groups of 5-10. The test compounds were dissolved or suspended in 0.5 % Tween 80 aqueous solution, and orally administered to the mice. Observation was made for 7 days after administration. The LD₅₀ values (50% of lethal dose) (95% confidence limit) were determined by the Litchfield-Wilconxon method, and are shown in Table 4.

Acute toxicity test = conditions: mouse, in vivo, po, mice, observation for 7 days, Litchfield-Wilcoxon, 95% confidence limit in brackets, read-out: LD₅₀ values (50% of lethal dose)
Procedure: as §1

Male Slc-ddy mice [2] = test: Inhibitory effect on the motor coordination (rotating rod test); conditions: oral, rotating rod 30 min after administration, falling off within 60 s counted as positive, 95% confidence limit in brackets
Procedure: Male Slc-ddy mice of 20 - 25 g (5 weeks old) were used in groups of 7 - 10. The test compounds were used dissolved or suspended in 0.5 % CMC or 0.5 % Tween 80 solution. Each test compound (300 - 600 mg/10 ml/kg) was orally administered to the mice, and after 30 min the mice were put on a 3-cm diameter rod rotating at a speed of 10 min⁻¹ in a direction opposite to the rotation direction, and the time of staying on it was measured to a maximum of 180 s. Those falling off of the rotating rod within 60 s were judged as having an inhibitory effect on the motor coordination and, with the number of cases as index, comparison was made with the reference compound (eperisone hydrochloride).
The mice were trained in advance to be able to stay on the rotating rod for more than 300 s, and those capable of staying on it for more than 250 s immediately before testing were used.

Male Slc-ddy mice [3] = test: Anti-strychnine effect (time from tonic convulsions to death after subcutaneous strychnine nitrate); conditions: mice, oral, strychnine nitrate 1.5 mg/10 ml/kg s.c. after 30 min; Litchfield-Wilcoxon; 95% confidence limit in brackets
Procedure: Strychnine is known to enhance reflex stimulation, among others, of spinal cord to induce convulsions. If this effect of strychnine can be suppressed by administration of any of the above-mentioned compounds, this compound is expected to have a central muscle relaxation effect.
Male Slc-ddy mice of 25 - 30 g (5 weeks old) were used in groups of 7 - 10.
The test compounds (100 mg/10 ml/kg) were orally administered to the mice, and after 30 min, 1.5 mg/10 ml/kg of strychnine nitrate was administered subcutaneously, and the time was measured from the occurence of tonic convulsions to the death of the animals. Cases in which this time was extended to 6 min or more were judged as corresponding to an anti-strychnine effect, and with the number of such cases as index, comparison was made with the reference compound (eperisone hydrochloride). […] The ED₅₀ values (95% confidence limit) for the anti-strychnine effect were determined by the Litchfield-Wilcoxon method and are shown in Table 3.

CCc1ccc(C(=O)C(C)CN2CCCCC2)cc1 (stereo not drawn) [Eperisone hydrochloride, reference compound]
ED50 (Male Slc-ddy mice [1]): 140 mg/kg | minimum lethal dose relative to the minimum amount necessary for developing a pharmacological effect (safety margin) (Male ddy mice): the minimum lethal dose is close to the minimum amount necessary for developing a pharmacological effect | LD50 at 168 h (Acute toxicity test): 303 mg/kg | ED₅₀ values for the inhibitory effect on the motor coordination (Male Slc-ddy mice [2]): positive cases not in excess of 50% | ED₅₀ values for the anti-strychnine effect (Male Slc-ddy mice [3]): No effect detected

CCc1ccc(C(=O)C(C)Cn2ccnc2)cc1 (stereo not drawn) [Hydrochloride of compound 2]
LD₅₀ values (50% of lethal dose) (Male ddy mice; observation for 7 days, Litchfield-Wilcoxon, 95% confidence limit in brackets, 10080 min): 225 mg/kg (182-278)
